A short description of data set [1]: In vitro metabolism in rat liver microsomes with UDPA. It counts as in vitro ADME. As to conditions: rat liver microsomes with UGT reaction mixture, 37°C. The procedure:
Incubations of test substances in reaction mixtures without microsomes were used as a control. All samples were protected against light during the experiments.
(Liver microsomes are vesicles of endoplasmic reticulum, rich in cytochrome P450 enzymes.)

The conditions of data set [2]: cited from earlier work.
The nature of data set [3]: Single dose intravenous pharmacokinetic study in Wistar rats. It counts as in vivo. The following applies: 10 mg/kg. The procedure:
Pharmacokinetic studies were conducted with male Wistar rats. Rats were acclimatized and housed at 22°C under 12h light/dark cycle with free access to sterilized commercial food pellets and water in the animal research facility (Curtin University) for at least 3 days prior to experiments. All animal experiments were approved by the Animal Ethics Committee of Curtin University (Approval no: R37–10 Amendment Approval No: A47–10 and A56–10) and were performed according to the Australian Code of Practice for the care and use of animals for scientific purposes. In order to minimize pain and suffering, the dosing and bleeding procedures were conducted under anesthesia (isoflurane at 5% for the induction and 2% for the maintenance, in combination with 1.5% oxygen). At the end of the study, rats were scarified by anesthetic euthanasia using 5% isofluorane with 1.5% oxygen. […] Blood (300 μL) was collected from the tail vein at 0.08, 0.5, 1, 2 and 4 hours into EDTA coated tubes. The blood samples were immediately stored in ice and protected from light until centrifuged (12000 × g at 4°C for 10 min). […] Metabolites were identified using LC-MS/MS (Applied Biosystems, 4000 QTRAP, Toronto, Canada).
Data analysis and representation (mean ± SD) were performed with SigmaPlot version 12 (Systat Software, Inc., Chicago, IL). Pharmacokinetic analysis was performed using Kinetica Version 5.0 (Thermo Fisher Scientific, Inc., Waltham, MA). Non compartmental analysis of the plasma concentration-time data was used to estimate the area under the curve (AUC0-∞; log-linear trapezoidal method), elimination half-life (t½), apparent clearance (CL; Dose÷AUC0-∞), mean residence time (MRT) and volume of distribution (Vss; CL×MRT). Statistical analysis of pharmacokinetic parameters was performed using unpaired t-test with Graphpad Prism software (version 6.05). Pharmacokinetic parameters obtained for each group were analyzed against the resveratrol group and p values were reported.

On the set-up of data set [4]: method as in PMID 18501919. The following applies: cited from earlier work.
Data set [5] in a line: Behaviour of conjugates in aqueous solution (solubility / self-aggregation). It counts as physicochemical. The following applies: up to 10 mg/mL. The procedure: A solution of 40 mg of MeO-PEG-PLAO-Succ-RSV conjugate in acetonitrile (2 mL) was prepared. The stock solution was diluted with water (4 mL). The acetonitrile was removed by bubbling inert nitrogen gas at room temperature in the dark. The final volume of micellar/nanoparticle dispersion was adjusted to the required volume with water. For pharmacokinetic studies, final concentration of conjugate in micelle dispersion was 10 mg/mL and for critical micellear concentration measurement, the dispersion was diluted accordingly to obtain a series concentration of conjugate in solution below and above the CMC. The micelles of MeO-PEGO-Succ-RSV were formed spontaneously after dispersing in water.

Data set [6] in a line: Stability of resveratrol-polymer conjugates in physiological relevant buffers. It counts as physicochemical. The following applies: phosphate buffer 0.1M pH 7.4, 37°C. The procedure:
Briefly, reversed phase chromatographic separation was employed for analysis with xxx column. The HPLC gradient system consisted of solvent A, buffer pH 7.0 with triethyl amine-formic acid (0.05 and 0.2% v/v in water) and solvent B, methanol. A 30 min linear gradient was programmed as follows: 0 min 5% B, 4 min 20% B, 7 min 20% B, 16 min 55% B, 18 min 55% B, 18.5 min 95% B, 23 min 95% B, 24 min 5% B. The flow rate was maintained at 1 mL/min and the injection volume was 50 μL. The HPLC analysis was performed at ambient temperature. Altech Apollo C18 150 X 4.6 mm, 5μ column was employed for seperation. This HPLC method was validated to precisely separate and quantify the trans-resveratrol in the analyte mixture. There was at least two min difference in retention times for the trans and cis isomers of resveratrol. The UV spectrum of the trans isomer is very different from the cis isomer, thus any change to the trans isomer could have been detected. Although quantification was performed using the fluorescence detector at an excitation wavelength of 320nm and emission at 400 nm, simultaneous UV chromatograms were also recorded for specificity and peak purity purposes.
A similar procedure was used to study the stability of MeO-PEG-PLAO-Succ-RSV in buffers; micelles were prepared as per section 2.8 and diluted 1:5 with buffer solutions and incubated at 37°C. […]

The nature of data set [7]: Stability of resveratrol-polymer conjugates in rat plasma. It counts as in vitro ADME. As to conditions: 37°C. As to the method: The MeO-PEGN-Succ-RSV, 2 kDa, 20 kDa and MeO-PEGO-Succ-RSV 2 kDa (MW quoted in the paper is the size of polymer only. Mw for RSV is 228 Da) at the 10 mg/mL were incubated in plasma at 37°C. […] Aliquots of plasma (0.1 mL) were withdrawn at regular intervals and mixed with acetonitrile (0.9 mL). The mixtures were centrifuged at 10,000 rpm for 5 minutes. The supernatant (0.25 mL) was diluted with water (0.25 mL) and analysed by HPLC [28]. All samples were protected against light during the experiments.

Data set [8] can be described thus: DPPH inhibition assay (in vitro antioxidant). It counts as biochemical. As to conditions: DPPH 1 x 10^-4M in methanol, 30 min, room temperature. The procedure:
Final concentration of DPPH was maintained at 1 x 10^-4M. […] After 30 min incubation at room temperature, the absorbance of these solutions was determined at 518 nm using a Hewlett Packard 8452A, UV-VIS spectrophotometer (Waldbronn, Germany). […] The IC 50 values were determined from the plot of % DPPH remaining against concentration of RSV and its equivalent conjugates.
(DPPH is a stable violet radical that fades when it is reduced.)

Where [9] appears, read: male, Wistar, rat, plasma, mean ± SD.

Data on 5 compounds can be found in paper PMC4370505 (PLoS ONE, 2015).

Turning to `Oc1ccc(/C=C/c2cc(O)cc(O)c2)cc1` [Resveratrol, trans-Resveratrol], the “Time within which almost all was metabolized” value in data set [1] is at most 10 min. In data set [2], the “CL (previous reports)” value is 183 to 317 mL/min/kg and the “t½ (previous reports)” value is given as 1.3 h. Further, the “Plasma concentration after two hours” value in data set [3] is given as “below the limit of detection”. Besides, in data set [3] (mean ± SD), the CL was found to be 335 ± 140 mL/min/kg. Moreover, in data set [3] (setting [9]), the AUC(0-inf) (in general, total exposure, with the tail of the curve extrapolated) amounted to 2.4 ± 0.7 µM·h and the MRT (usually the average time that molecules of a dose stay in the body) was 1.3 ± 1 h. For the same compound, the Vd in data set [3] (male, Wistar, rat, plasma, mean ± SD, read-out: Vss) worked out at 26.8 ± 19.1 L/kg. Also, the half-life in data set [3] (male, Wistar, rat, plasma, mean ± SD, read-out: t½ (converted)) is 1.4 ± 0.9 h. In addition, in data set [3] (male, Wistar, rat, plasma, iv, mean ± SD), the clearance (commonly a measure of how efficiently the substance is removed, as volume per time) is 333 mL/min/kg.

As for `CN(C)c1ccc(/N=N/c2ccccc2)cc1` [dimethyl yellow], the Aqueous solubility (usually how much of the substance goes into solution per volume) in data set [4] was 13 µg/mL.

With “MeO-PEG succinyl ester resveratrol [MeO-PEGO-Succ-RSV 2 kDa]”, the “Behaviour in aqueous solution” value in data set [5] was “self-aggregated into polymeric micelles”. The “% Conjugate Remaining at 24 hr pH 7.4” value in data set [6] is listed as around 65%. Moreover, the “Plasma t1/2” value in data set [7] (rat plasma in vitro) is below 5 min. The “Intact conjugate detected by HPLC at initial time point” value in data set [7] (rat plasma, initial time point of 0 h) is “almost no intact polymer conjugate was detected”.

Turning to “α-methoxy poly(ethylene glycol)-co-polylactide succinyl ester resveratrol [MeO-PEG-PLAO-Succ-RSV 2 kDa]”, the “IC 50 DPPH inhibition” value in data set [8] is “similar”.

Regarding “α-methoxy-ω-carboxylic acid poly(ethylene glycol) succinylamide resveratrol [MeO-PEGN-Succ-RSV 2 kDa]”, in data set [8], the “IC 50 DPPH inhibition” value was “similar”.
